Laboratory results taken from patent US4546079A, “Streptomyces species and process for producing antibiotic” (Bayer Aktiengesellschaft, priority 1981, dated 1985).
*1 amine or outer side, *2 acyl side, *3 side chain or, on linkers, in order; H or OH if unused. Where a SMILES comes first, the peptide text is derived from it. [ ]: non-standard residue; d: D form. ξ: configuration not given here. X1 = Cn1c(=NC(N)=O)ccn(C2SC(C(O)C(N[*:1])C(=O)[*:2])C(O)C2O)c1=O; ξOrn(N(OH)Ac) = CC(=O)N(O)CCCC(N)C(=O)O; ξS = NC(CO)C(=O)O

Legend:
E. coli Neumann = experiment: animal test (mice), ED100; type: in vivo; settings: Escherichia coli, sc, i.p. infection, s.c. treatment, all animals survive, read-out: ED100 after intra-peritoneal infection and subcutaneous treatment
Protocol: (§1) | ED100 after intra-peritoneal | infection and subcutaneous The animals were infected with a quantity of bacteria, which quantity led to the death of the control animals during the course of 24 hours. The ED100 was the dose which allowed all infected and treated animals to survive.

Klebsiella pneumoniae 63 = experiment: animal test (mice), ED100; type: in vivo; settings: sc, i.p. infection, s.c. treatment, all animals survive, read-out: ED100 after intra-peritoneal infection and subcutaneous treatment
Protocol: as §1

E. coli 205 Kn = experiment: animal test (mice), ED100; type: in vivo; settings: Escherichia coli, sc, i.p. infection, s.c. treatment, all animals survive, read-out: ED100 after intra-peritoneal infection and subcutaneous treatment
Protocol: as §1

Staphylococcus aureus = experiment: animal test (mice), ED100; type: in vivo; settings: sc, i.p. infection, s.c. treatment, all animals survive, read-out: ED100 after intra-peritoneal infection and subcutaneous treatment
Protocol: as §1

[1] = pH 7
E. coli 14 = experiment: agar dilution test (NCCLS), in vitro activity; type: cell-based
physchem = settings: organic solvent or mixture
E. coli C 165 = experiment: agar dilution test (NCCLS), in vitro activity; type: cell-based
E. coli Newmann = experiment: ED100 (complete cure) in the white mouse; type: in vivo; settings: Escherichia coli, sc, 0.5 h, once, 30 minutes after infection, subcutaneously
Protocol: An ED100 (complete cure) is found in vivo for the white mouse, at 3 mg of antibiotic/kg of body weight, in the case of infection with E. coli […]; therapy: application once, 30 minutes after infection, subcutaneously.

SMILES: CC(=O)N(O)CCCC(N)C(=O)NC(CCCN(O)C(C)=O)C(=O)NC(CCCN(O)C(C)=O)C(=O)NC(CO)C(=O)NC(C(=O)O)C(O)C1SC(n2ccc(=NC(N)=O)n(C)c2=O)C(O)C1O (stereo not drawn) [BAY i 3265 component B] (H-[ξOrn(N(OH)Ac)][ξOrn(N(OH)Ac)][ξOrn(N(OH)Ac)][ξS][X1]-OH)
- ED100 (E. coli Neumann): 0.5 mg/kg
- ED100 (Klebsiella pneumoniae 63): 0.2 mg/kg
- ED100 (E. coli 205 Kn): 0.1 mg/kg
- ED100 (Staphylococcus aureus): 0.6 mg/kg
- solubility in water [1]: unlimited solubility
- in vitro activity (E. coli 14): in vitro activity is found
- solubility (physchem; chloroform): < 100 µg/mL
- solubility (physchem; dimethylformamide): < 10000 µg/mL
- solubility (physchem; dimethylsulphoxide): < 10000 µg/mL
- solubility (physchem; ether): < 100 µg/mL
- solubility (physchem; ethyl acetate): < 100 µg/mL
- solubility (physchem; methanol): < 10000 µg/mL
- solubility (physchem; petroleum ether): < 100 µg/mL
- in vitro activity (E. coli C 165): in vitro activity is found
- ED100 (E. coli Newmann): 3 mg/kg
